The text below walks through data of US20100292266A1, “Oxazolyl Piperidine Modulators of Fatty Acid Amide Hydrolase” (priority 2006, published 2010).

For assay [1] the following is noted: model of multiple sclerosis, Baker 2001; cited from earlier work.
For assay [2] the following is noted: rats; WO 02/087569; cited from earlier work.
For assay [3] the following is noted: rats; WO 02/087569; cited from earlier work. The source holds these as a separate data set.
Assay [4] addresses T1, Rat FAAH (Rattus norvegicus, UniProt P97612).
T1 construct: expressed in transfected cells
T1 sequence (P97612 1-579): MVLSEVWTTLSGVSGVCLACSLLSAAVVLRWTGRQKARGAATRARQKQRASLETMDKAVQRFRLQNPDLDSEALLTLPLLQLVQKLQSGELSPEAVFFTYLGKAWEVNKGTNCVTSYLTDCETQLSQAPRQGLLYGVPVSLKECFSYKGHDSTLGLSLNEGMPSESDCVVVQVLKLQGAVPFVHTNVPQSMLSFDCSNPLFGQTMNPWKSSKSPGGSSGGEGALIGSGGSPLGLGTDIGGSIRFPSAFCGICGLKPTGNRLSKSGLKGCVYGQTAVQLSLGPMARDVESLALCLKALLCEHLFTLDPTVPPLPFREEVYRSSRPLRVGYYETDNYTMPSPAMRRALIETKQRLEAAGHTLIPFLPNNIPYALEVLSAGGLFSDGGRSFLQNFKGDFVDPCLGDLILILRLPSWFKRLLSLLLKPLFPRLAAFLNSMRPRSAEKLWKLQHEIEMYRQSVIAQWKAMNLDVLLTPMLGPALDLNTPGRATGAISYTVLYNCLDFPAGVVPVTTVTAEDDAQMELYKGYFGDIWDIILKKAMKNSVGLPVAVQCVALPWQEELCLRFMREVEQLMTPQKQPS
The assay can be described thus: Assay Method 2: FAAH assay, 3H-anandamide hydrolysis in cell homogenate. The class given is biochemical. Particulars: transfected SK-N-MC cell homogenate, 80 nM 3H-AEA, 1 h rt, > = solubility limit or highest concentration tested. In outline: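 Homogenate of SK-N-MC cells stably transfected with rat FAAH cDNA (G418-selected clones) incubated with compound and 80 nM final [3H]-anandamide for 1 h. Released [3H]-ethanolamine separated on activated charcoal filters by centrifugation and counted by scintillation. ">" values mark solubility limit or top concentration tested.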

For assay [5], the target named is T2, FAAH (Homo sapiens, UniProt O00519).
T2 sequence (O00519 1-579): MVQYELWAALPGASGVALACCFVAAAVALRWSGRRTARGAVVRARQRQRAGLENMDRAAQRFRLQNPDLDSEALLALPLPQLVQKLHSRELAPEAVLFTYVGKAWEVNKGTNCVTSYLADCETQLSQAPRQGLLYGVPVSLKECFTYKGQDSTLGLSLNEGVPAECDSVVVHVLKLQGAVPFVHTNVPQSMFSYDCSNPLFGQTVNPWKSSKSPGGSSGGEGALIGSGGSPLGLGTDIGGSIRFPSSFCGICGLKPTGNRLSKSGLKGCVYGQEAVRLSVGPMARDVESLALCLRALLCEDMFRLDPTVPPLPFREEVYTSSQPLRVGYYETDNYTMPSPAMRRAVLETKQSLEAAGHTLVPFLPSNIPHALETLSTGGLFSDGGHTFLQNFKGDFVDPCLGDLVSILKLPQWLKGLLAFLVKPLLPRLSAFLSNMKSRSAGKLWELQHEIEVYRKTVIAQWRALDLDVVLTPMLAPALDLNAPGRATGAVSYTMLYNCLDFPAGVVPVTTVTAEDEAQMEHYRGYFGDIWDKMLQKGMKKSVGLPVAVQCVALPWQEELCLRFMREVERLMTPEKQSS
The assay can be described thus: Assay Method 1: FAAH assay, 3H-anandamide hydrolysis in cell homogenate. It counts as biochemical. Particulars: T84 or transfected SK-N-MC cell homogenate, 80 nM 3H-AEA, 1 h rt, > = solubility limit or highest concentration tested. More on the design: expressed in transfected cells. In outline:
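Homogenate of SK-N-MC cells stably transfected with human FAAH, incubated with compound and 80 nM final ³H-anandamide for 1 h at rt. Released ³H-ethanolamine separated from substrate on activated charcoal and counted by scintillation. ">" values reflect solubility limit or top concentration tested.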

In assay [6] the target is T2, FAAH. Particulars: WO 04/033652; cited from earlier work.
The conditions of assay [7]: rats; WO 04/033652; cited from earlier work.
The conditions of assay [8]: cited from earlier work.
The conditions of assay [9]: rats; Kathuria 2003; cited from earlier work.
For assay [10] the following is noted: Kathuria 2003; cited from earlier work.

For the compound `CCCCCCCCCCCCCCCCS(=O)(=O)F` [AM374], the “spasticity in CREAE mice” value in assay [1] is “significantly reduce spasticity”.
Turning to `Cc1nc(-c2ccccc2)c(-c2ccccc2)n1CCCCCCNC(=O)Oc1ccccc1F` [BMS-1], in assay [2], the “analgesic effect in Chung spinal nerve ligation model of neuropathic pain” value is recorded as “analgesic effect”. In addition, the “analgesic effect in Hargraves test of acute thermal nociception” value in [3] was “analgesic effect”.
Take `O=C(c1ncco1)C1CCN(Cc2cnc3ccccc3c2)CC1` [Example 85, Oxazol-2-yl-(1-quinolin-3-ylmethyl-piperidin-4-yl)-methanone]: the IC50 in assay [4] was 43 nM; in assay [5], 18 nM.
The matching figures for `CC(C)c1ccc(CN2CCC(C(=O)c3ncco3)CC2)cc1` [Example 86, [1-(4-Isopropyl-benzyl)-piperidin-4-yl]-oxazol-2-yl-methanone]: 170 nM and 110 nM.
Turning to `O=C(c1ncco1)C1CCN(Cc2ccc(Br)c(Br)c2)CC1` [Example 87, [1-(3,4-Dibromo-benzyl)-piperidin-4-yl]-oxazol-2-yl-methanone], the half-maximal inhibitory concentration (IC50) in assay [4] and in assay [5] was 2 nM each time.
Turning to `O=C(c1ncco1)C1CCN(Cc2ccc3ccccc3c2)CC1` [Example 88, (1-Naphthalen-2-ylmethyl-piperidin-4-yl)-oxazol-2-yl-methanone], the IC50 in assay [4] amounted to 9 nM; in [5], 4 nM.
As for `O=C(c1ncco1)C1CCN(Cc2ccccc2)CC1` [Example 89, (1-Benzyl-piperidin-4-yl)-oxazol-2-yl-methanone], the values for the IC50 in [4] and in assay [5] were 7000 nM and 3000 nM, respectively.
On to `CC(c1cccc(C(F)(F)F)c1)N1CCC(C(=O)c2ncco2)CC1` (stereo not drawn) [Example 91, Oxazol-2-yl-{1-[1-(3-trifluoromethyl-phenyl)-ethyl]-piperidin-4-yl}-methanone], for which the half-maximal inhibitory concentration (IC50) in assay [4] was 370 nM; in [5] it was 782 nM.
Consider `O=C(CCCCCCc1ccccc1)c1ncc(-c2ccccn2)o1` [OL-135], for which the “inhibition of FAAH” value in [6] is recorded as “potent inhibitor of FAAH”. Also, in [7], the “analgesic activity in tail emersion test of thermal nociception” value was “analgesic activity”. Moreover, in assay [8] (rats, WO 04/033652), the “analgesic activity in hot plate test of thermal nociception” value is recorded as “analgesic activity”.
Regarding `NC(=O)c1cccc(-c2cccc(OC(=O)NC3CCCCC3)c2)c1` [URB-597], the “efficacy in zero plus maze model of anxiety” value in assay [9] is recorded as “efficacy”. Besides, the “analgesic efficacy in rat formalin test” value in assay [10] is “analgesic efficacy”. In addition, the “analgesic efficacy in rat hot plate test” value in assay [8] (rat, Kathuria 2003) is on record as “analgesic efficacy”.

As a reminder, the IC50 is the concentration needed to halve the response being measured. Low readings indicate greater potency, high ones weaker potency.
